According to PMC10180076, “Novel Biologically Active N-Substituted Benzimidazole Derived Schiff Bases: Design, Synthesis, and Biological Evaluation” (Molecules, 2023):
≈ marks a conversion by molar mass, not a printed value.

Assays:
NCI-H460, lung carcinoma = assay: Proliferation assay (MTS, 72 h), NCI-H460; assay type: cell-based, human; conditions: Homo sapiens, NCI-H460
Text: (§1) Human cancer cells used in this manuscript, namely Capan-1, HCT-116, NCI-H460, LN-229, HL-60, K-562, and Z-138, were acquired from the American Type Culture Collection (ATCC, Manassas, VA, USA), while the DND-41 cell line was purchased from the Deutsche Sammlung von Mikroorganismen und Zellkulturen (DSMZ Leibniz-Institut, Braunschweig, Germany). Culture media were purchased from Gibco Life Technologies, Merelbeke, Belgium, and supplemented with 10% fetal bovine serum (HyClone, Cytiva, Marlborough, MA, USA). Vincristine and docetaxel, which were used as the reference inhibitors, were purchased from Selleckchem (Munich, Germany). Stock solutions were prepared in DMSO.
(§2) Adherent cell lines LN-229, HCT-116, and NCI-H460 and Capan-1 cells were seeded at a density between 500 and 1500 cells per well, in 384-well tissue culture plates (Greiner, Kremsmünster, Austria). After overnight incubation, the cells were treated with seven different concentrations of the test compounds, ranging from 100 to 0.006 µM.
(§3) Suspension cell lines HL-60, K-562, Z-138, and DND-41 were seeded at densities ranging from 2500 to 5500 cells per well in 384-well culture plates containing the test compounds at the same concentration points. The cells were incubated for 72 h with the compounds and were then analyzed using the CellTiter 96® AQueous One Solution Cell Proliferation Assay (MTS) reagent (Promega, Madison, WI, USA) according to the manufacturer’s instructions. […] The compounds were tested in two independent experiments.

[1] = test system: respiratory syncytial virus A (Long); assay: Antiviral CPE reduction assay, RSV A in HEL 299; assay type: cell-based; conditions: human respiratory syncytial virus; HEL 299 cells, 100 CCID50, MTS
Zika virus (Mr776) = assay: Antiviral CPE reduction assay, Zika virus in Huh-7; assay type: cell-based; conditions: Huh-7 cells, 100 CCID50, MTS
[2] = test system: K-562, chronic myeloid leukemia; assay: Proliferation assay (MTS, 72 h), K-562; assay type: cell-based, human; conditions: Homo sapiens, K562
Text: as §1, §2, §3

sindbis virus = assay: Antiviral CPE reduction assay, Sindbis virus in Huh-7; assay type: cell-based; conditions: Huh-7 cells, 100 CCID50, MTS
[3] = test system: Z-138, non-Hodgkin lymphoma; assay: Proliferation assay (MTS, 72 h), Z-138; assay type: cell-based, human; conditions: Homo sapiens, Z-138
Text: as §1, §2, §3

[4] = test system: DND-41, acute lymphoblastic leukemia; assay: Proliferation assay (MTS, 72 h), DND-41; assay type: cell-based, human; conditions: Homo sapiens, DND41
Text: as §1, §2, §3

[5] = test system: yellow fever virus (YFV 17D); assay: microbe, parasite or virus in culture; assay type: cell-based; conditions: Huh-7, read-out: Antiviral Activity (EC50/μM) YFV 17D Huh-7
[6] = test system: HL-60, acute myeloid leukemia; assay: Proliferation assay (MTS, 72 h), HL-60; assay type: cell-based, human; conditions: Homo sapiens, HL-60
Text: as §1, §2, §3

[7] = test system: herpes simplex virus-1 (HSV-1 KOS); assay: Antiviral CPE reduction assay, HSV-1 KOS in HEL 299; assay type: cell-based; conditions: Human alphaherpesvirus 1; HEL 299 cells, 100 CCID50, MTS
in vitro [8] = conditions: dog
[9] = test system: Capan-1, pancreatic adenocarcinoma; assay: Proliferation assay (MTS, 72 h), Capan-1; assay type: cell-based, human; conditions: Homo sapiens, CAPAN-1
Text: as §1, §2, §3

[10] = test system: influenza A/H3N2 (A/HK/7/87); assay: Antiviral CPE reduction assay, influenza A/H3N2 in MDCK; assay type: cell-based; conditions: Influenza A virus, MDCK cells, 100 CCID50, MTS
[11] = test system: influenza B (B/Ned/537/05); assay: Antiviral CPE reduction assay, influenza B in MDCK; assay type: cell-based; conditions: Influenza B virus; MDCK cells, 100 CCID50, MTS
[12] = test system: influenza A/H1N1 (A/Ned/378/05); assay: Antiviral CPE reduction assay, influenza A/H1N1 in MDCK; assay type: cell-based; conditions: Influenza A virus, MDCK cells, 100 CCID50, MTS
in vitro [13] = conditions: human
LN-229, glioblastoma = assay: Proliferation assay (MTS, 72 h), LN-229; assay type: cell-based, human; conditions: Homo sapiens, LN-229
Text: as §1, §2, §3

[14] = test system: human coronavirus HCoV-OC43; assay: microbe, parasite or virus in culture; assay type: cell-based; conditions: Betacoronavirus 1, OC43; HEL 299 cells, 100 CCID50, MTS; read-out: Antiviral Activity (EC50/μM) HCoV OC43 HEL 299
in vitro [15] = conditions: human; remark: listed apart in the source
[16] = test system: human coronavirus HCoV-229E; assay: organism not typed; assay type: cell-based; conditions: HEL 299 cells, 100 CCID50, MTS; read-out: Antiviral Activity (EC50/μM) HCoV 229E HEL 299
[17] = test system: HCT-116, colorectal carcinoma; assay: Proliferation assay (MTS, 72 h), HCT-116; assay type: cell-based, human; conditions: Homo sapiens, HCT-116
Text: as §1, §2, §3

[18] = test system: human coronavirus HCoV-NL63; assay: Antiviral CPE reduction assay, HCoV-NL63 in Huh-7; assay type: cell-based; conditions: Huh-7 cells, 100 CCID50, MTS
E. coli efflux del = assay: microbe, parasite or virus in culture; assay type: cell-based; conditions: Table 2 prints no unit; μM for compounds; antibiotics tested at 0.125–64 µg/mL
Description: (§4) Selected bacterial strains were Gram-negative E. coli, K. pneumoniae, A. baumannii and P. aeruginosa and Gram-positive S. aureus, S. pneumoniae, and E. faecalis. The synthesized compounds were prepared as 10 mM DMSO solutions and tested in a final concentration range of 0.2–100 µM [39].
(§5) Broth microdilution testing was performed according to CLSI (Clinical Laboratory Standards Institute) guidelines. The MIC (minimal inhibitory concentration) value was defined as the last tested concentration of the compound at which there was no visible growth of bacteria. Inoculums for each microorganism were prepared using the direct colony suspension method, where broth solutions that achieved turbidity equivalent to 0.5 McFarland standard were additionally diluted 100× with Ca adjusted MH media (Becton Dickinson, Franklin Lakes, NJ, USA). All of the test plates were incubated for 16–24 h at 37 °C.
(§6) Methods for dilution of antimicrobial susceptibility tests for bacteria that grow aerobically followed M07, 11th edition, 2018, and Clinical and Laboratory Standards Institute (CLSI) guidelines. Performance standards for antimicrobial susceptibility testing followed the M100, 28th edition, 2018.

S. aureus ATCC 29213 = assay: Broth microdilution MIC, S. aureus; assay type: cell-based; conditions: Staphylococcus aureus, ATCC29213; read-out: MIC against S. aureus
Description: as §4, §5, §6

E. faecalis ATCC 29212 = assay: Broth microdilution MIC, E. faecalis; assay type: cell-based; conditions: Enterococcus faecalis, ATCC29212; read-out: MIC against E. faecalis
Description: as §4, §5, §6

SMILES | IC50 (NCI-H460, lung carcinoma) | EC50 [1] | EC50 (Zika virus (Mr776)) | IC50 [2] | EC50 (sindbis virus) | IC50 [3] | IC50 [4] | EC50 [5] | IC50 [6] | EC50 [7] | CC50 (in vitro [8]) | IC50 [9] | EC50 [10] | EC50 [11] | EC50 [12] | melting point | IC50 (LN-229, glioblastoma) | EC50 [14] | IC50 [17] | MIC E. coli efflux del (E. coli efflux del) | further results
CC(C)Cn1c(/N=C/c2ccc([N+](=O)[O-])cc2)nc2ccc(C#N)cc21 [Compound 32, (E)-1-Isobutyl-2-((4-nitrobenzylidene)amino)-1H-benzo[d]imidazole-6-carbonitrile] | > 100 µM | > 100 µM | > 100 µM | > 100 µM | > 100 µM | > 100 µM | > 100 µM | > 100 µM | > 100 µM | > 100 µM | > 100 µM | > 100 µM | > 100 µM | > 100 µM | > 100 µM | 277 to 279 °C | > 100 µM | 68.7 µM | > 100 µM |  | CC50 (in vitro [13]): > 100 µM; CC50 (in vitro [15]): 90.1 µM; EC50 [16]: 38.5 µM; EC50 [18]: > 100 µM
Cn1c(/N=C/c2ccc([N+](=O)[O-])cc2)nc2ccc(C#N)cc21 [Compound 37, (E)-1-Methyl-2-((4-nitrobenzylidene)amino)-1H-benzo[d]imidazole-6-carbonitrile] | > 100 µM |  |  | > 100 µM |  | > 100 µM | > 100 µM |  | > 100 µM |  |  | > 100 µM |  |  |  |  | > 100 µM |  | > 100 µM | >64 | MIC (S. aureus ATCC 29213): 32 µM (≈ 9.77 µg/mL)
CN(C)c1ccc(/C=N/c2nc3ccccc3n2-c2ccccc2)cc1 [Compound 38, (E)-N,N-Dimethyl-4-(((1-phenyl-1H-benzo[d]imidazol-2-yl)imino)methyl)aniline] | > 100 µM | > 100 µM | > 100 µM | > 100 µM | > 100 µM | > 100 µM | > 100 µM | > 100 µM | > 100 µM | > 100 µM | > 100 µM | > 100 µM | > 100 µM | > 100 µM | > 100 µM | 204 to 207 °C | > 100 µM | 94.8 µM | > 100 µM | >64 | MIC (E. faecalis ATCC 29212): 32 µM (≈ 10.9 µg/mL); CC50 (in vitro [13]): > 100 µM; CC50 (in vitro [15]): > 100 µM; EC50 [16]: > 100 µM; EC50 [18]: > 100 µM
CCN(CC)c1ccc(/C=N/c2nc3ccc(C#N)cc3n2-c2ccccc2)c(O)c1 [Compound 41, (E)-2-((4-(Diethylamino)-2-hydroxybenzylidene)amino)-1-phenyl-1H-benzo[d]imidazole-6-carbonitrile] | > 100 µM | > 100 µM | > 100 µM | > 100 µM | > 100 µM | 35.2 µM | 76.3 µM | > 100 µM | 49.6 µM | > 100 µM | 71.6 µM | 69.5 µM | > 100 µM | > 100 µM | > 100 µM | 111 to 114 °C | > 100 µM | 89.5 µM | > 100 µM | >64 | MIC (E. faecalis ATCC 29212): 32 µM (≈ 13.1 µg/mL); CC50 (in vitro [13]): > 100 µM; CC50 (in vitro [15]): > 100 µM; EC50 [16]: > 100 µM; EC50 [18]: > 100 µM
CCCCCCn1c(/N=C/c2ccc(N(C)C)cc2)nc2ccccc21 [Compound 42, (E)-4-(((1-Hexyl-1H-benzo[d]imidazol-2-yl)imino)methyl)-N,N-dimethylaniline] | 64.4 µM | > 100 µM | > 100 µM | 90.8 µM | > 100 µM | > 100 µM | > 100 µM | > 100 µM | 73.2 µM | > 100 µM | 34.6 µM | > 100 µM | > 100 µM | > 100 µM | > 100 µM | 231 to 234 °C | > 100 µM | > 100 µM | > 100 µM | 64 | MIC (E. faecalis ATCC 29212): 32 µM (≈ 11.2 µg/mL); MIC (S. aureus ATCC 29213): 32 µM (≈ 11.2 µg/mL); EC50 [16]: 34.7 µM; EC50 [18]: > 100 µM
C[C@@H](O)[C@H]1C(=O)N2C(C(=O)O)=C(S[C@@H]3CN[C@H](C(=O)N(C)C)C3)[C@H](C)[C@H]12 [Meropenem, meropenem, reference compound] |  |  |  |  |  |  |  |  |  |  |  |  |  |  |  |  |  |  |  | 8 | 
